Results published in US6359142B1 (priority 1998, dated 2002).

What was measured:
Phytophthora infestans = assay type: in vivo; conditions: tomato, protective, application rate 50 g/ha, evaluation 3 days after inoculation; 0% = control, 100% = no infection

Row | Compound | logP (log p) | Efficacy in % (Phytophthora infestans) [%] | melting point [°C]
1 | CCc1[nH]c(=O)oc1C#N [5-cycano-4-ethyl-3H-[1,3]-oxazol-2-one] | 0.88 | – | –
2 | CCc1c(C#N)oc(=O)n1S(=O)(=O)c1c(C)noc1C [Example 1, 5-cyano4-ethyl-3-(3,5-dimethyl-isoxazole-4-sulphonyl)-3H-[1,3]-oxazol-2-one] | 2.87 | 94 | 117 to 122
